From US20060142337A1, “Piperidine derivative and use thereof” (priority 2004, published 2006)

Assays:
substance P receptor = molecular target: T1, substance P receptor (Homo sapiens, UniProt P25103); experiment: Radioligand receptor binding inhibitory activity using receptor from human lymphoblast cells (IM-9); conditions: [125I]-BHSP binding, receptor from IM-9 cells, 25 C, 30 min
T1 construct: endogenous in cells; host or cells: IM-9 human lymphoblast cells (membrane preparation)
Method: Radioligand receptor binding inhibitory activity (Binding inhibitory activity using receptor from human lymphoblast cells (IM-9))
The method of M. A. Cascieri et al., “Molecular Pharmacology 42, p. 458 (1992)” was modified and used. The receptor was. prepared from human lymphoblast cells (IM-9). IM-9 cells (2×10^5 cells/mL) were incubated for 3 days (one liter), which was then subjected to centrifuge for 5 min. at 500×G to obtain cell pellets. The obtained pellets were washed once with phosphate buffer (Flow Laboratories, CAT. No. 28-103-05), which were then homogenized using Polytron homogenizer (“Kinematika”, Germany) in 30 mL of 50 mM Tris-HCl buffer (pH 7.4) containing 120 mM sodium chloride, 5 mM potassium chloride, 2 μg/mL chymostatin, 40 μg/mL bacitracin, 5 μg/mL phosphoramidon, 0.5 mM phenylmethylsulfonyl fluoride, 1 mM ethylenediamine tetra-acetate, which was subjected to centrifuge at 40,000×G for 20 min. The residue was washed twice with 30 mL of the buffer, which was then preserved frozen (−80° C.) as a specimen of the receptor.
The specimen was suspended in a reaction buffer (50 mM Tris-HCl buffer (pH 7.4), 0.02% bovine serum albumin, 1 mM phenylmethylsulfonyl fluoride, 2 μg/mL chymostatin, 40 μg/mL bacitracin and 3 mM manganese chloride) to have protein in the concentration of 0.5 mg/mL of protein and 100 μL portion of the suspension was used in the reaction. After addition of the sample and ^125]-BHSP (0.46 KBq), the reaction was allowed to proceed in 0.2 mL of reaction buffer at […] for 30 min. The amount of nonspecific binding was determined by adding substance P at a final concentration of 2×10^−6 M.
After the reaction, using a cell harvester (290 PHD, Cambridge Technology, Inc, U.S.A.), filtration was carried out through a glass filter (GF/B, Whatman, U.S.A.), which was immersed in 0.1% polyethyleneimine for 24 hrs. and dried. After washing three times with 250 μL of 50 mM Tris-HCl buffer (pH 7.4) containing 0.02% bovine serum albumin, the radioactivity remaining on the filter was. determined with a gamma counter.
The antagonistic activity of each compound obtained in Examples was determined in terms of the concentration necessary to cause 50% inhibition (IC50 value) under the above-described conditions, and the results were shown in Table 14.
The radio ligand means substance P labeled with [^125I].

[1] = system: urethane anesthetized male guinea pigs; experiment: Bladder capacity increasing action in urethane anesthetized guinea pigs; format: in vivo, guinea pig; conditions: for Changes in bladder capacity (vs before administration, %): mean ± S.E.M.
Method: Bladder capacity increasing activity of substance P receptor antagonist (bladder capacity increasing action in urethane anesthetized guinea pigs)
A urinary frequency/urine incontinence suppressing effect of a substance having a substance P receptor antagonistic action was shown in terms of the ability to increase bladder capacity of urethane anesthetized male guinea pigs. After emptying the bladder by suction, saline warmed to 39° C. is infused into the bladder at a constant rate (0.3 mL/min.), until voiding. This procedure was repeated to confirm stable bladder capacity (amount of saline injected before induction of voiding). After confirming a stable response, a compound dissolved in DMSO was intravenously administered and the action was measured. Changes in the bladder capacity after drug administration were measured.

T1 sequence (P25103 whole entry): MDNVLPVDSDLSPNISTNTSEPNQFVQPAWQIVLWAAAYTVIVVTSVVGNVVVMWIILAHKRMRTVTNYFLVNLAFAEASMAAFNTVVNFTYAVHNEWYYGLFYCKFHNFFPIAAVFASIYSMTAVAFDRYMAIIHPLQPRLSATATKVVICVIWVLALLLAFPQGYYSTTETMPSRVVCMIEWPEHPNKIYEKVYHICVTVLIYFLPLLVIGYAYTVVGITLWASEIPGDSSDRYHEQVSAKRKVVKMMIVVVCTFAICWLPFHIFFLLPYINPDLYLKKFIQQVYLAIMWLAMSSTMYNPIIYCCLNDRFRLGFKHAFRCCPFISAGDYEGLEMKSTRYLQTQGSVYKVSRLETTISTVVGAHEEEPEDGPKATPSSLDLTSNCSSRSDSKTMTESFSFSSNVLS

C[C@@H](O[C@@H]1CCNC[C@@H]1c1ccccc1)c1cc(C(F)(F)F)cc(C(F)(F)F)c1.Cl showed a melting point of 150 to 152 °C.
With C[C@H](O[C@H]1CCNC[C@H]1c1ccccc1)c1cc(C(F)(F)F)cc(C(F)(F)F)c1.Cl the melting point was 150 to 152 °C.
In the case of CCC(=O)N[C@H]1CC[C@H](C(=O)N2CC[C@H](O[C@H](C)c3cc(C(F)(F)F)cc(C(F)(F)F)c3)[C@H](c3ccccc3)C2)CC1 [Example 43, N-[trans-4-[[(3R,4S)-4-[(1R)-1-[3,5-Bis(trifluoromethyl)phenyl]ethoxy]-3-phenylpiperidin-1-yl]carbonyl]cyclohexyl]propanamide], the IC50 (substance P receptor) is reported as 0.039 nM, the “Changes in bladder capacity (vs before administration, %)” value (“Changes … (vs before administration, %)” below) ([1]; Table 16, 0.01 mg/kg intravenous) is reported as 20.8 ± 5.6% and the “Changes … (vs before administration, %)” value ([1]; Table 16, 0.03 mg/kg intravenous) is reported as 19.3 ± 4.5%. For the same compound, the “Changes … (vs before administration, %)” value ([1]; Table 16, 0.1 mg/kg intravenous) was 39.9 ± 4.9 %, the “Changes … (vs before administration, %)” value ([1]; Table 16, 0.3 mg/kg intravenous) was 55.2 ± 13.3 % and the “Changes … (vs before administration, %)” value ([1]; Table 16, 1 mg/kg intravenous) was 74.3 ± 11.1 %.
In the case of C[C@@H](O[C@H]1OCCN(Cc2n[nH]c(=O)[nH]2)[C@H]1c1ccc(F)cc1)c1cc(C(F)(F)F)cc(C(F)(F)F)c1 [MK-869, 5-[[(2R,3S)-2-[(1R)-1-[3,5-bis(trifluoromethyl)phenyl]ethoxy]-3-(4-fluorophenyl)-4-morpholinyl]methyl]-1,2-dihydro-3H-1,2,4-triazol-3-one, reference compound], the “Changes … (vs before administration, %)” value ([1]; Table 15, 0.1 mg/kg intravenous) is reported as 14.7 ± 4.8%, the “Changes … (vs before administration, %)” value ([1]; Table 15, 0.3 mg/kg intravenous) is reported as 49.5 ± 10.3 % and the “Changes … (vs before administration, %)” value ([1]; Table 15, 1 mg/kg intravenous) is reported as 71.2 ± 16.9 %. For the same compound, the voiding pressure ([1]; intravenous administration, urethane anesthetized guinea pigs) was “without affecting the voiding pressure”.
In the case of CCNC(=O)[C@H]1CC[C@H](C(=O)N2CC[C@H](O[C@H](C)c3cc(C(F)(F)F)cc(C(F)(F)F)c3)[C@H](c3ccccc3)C2)CC1 [Example 69, trans-4-[[(3R,4S)-4-[(1R)-1-[3,5-Bis(trifluoromethyl)phenyl]ethoxy]-3-phenylpiperidin-1-yl]carbonyl]-N-ethylcyclohexanecarboxamide], the IC50 (substance P receptor) is reported as 0.099 nM.
C[C@@H](O[C@H]1CCN(C(=O)[C@H]2CC[C@H](NC(=O)N(C)C)CC2)C[C@H]1c1ccccc1)c1cc(C(F)(F)F)cc(C(F)(F)F)c1 [Example 66, N′-[trans-4-[[(3R,4S)-4-[(1R)-1-[3,5-Bis(trifluoromethyl)phenyl]ethoxy]-3-phenylpiperidin-1-yl]carbonyl]cyclohexyl]-N,N-dimethylurea] gave an IC50 (substance P receptor) of 0.072 nM.
